Experimental data reported in article PMC2905291, “A phase I study of the safety and pharmacokinetics of the histone deacetylase inhibitor belinostat administered in combination with carboplatin and/or paclitaxel in patients with solid tumours” (British Journal of Cancer, 2010).
Read-outs that look alike come from different tables or passages of the source.

Columns and labels:
[1] = tested on: class I and II recombinant HDAC isoforms; set-up: method as in Khan et al, 2008; conditions: ref Khan et al, 2008; cited from earlier work
[2] = tested on: solid and haematological tumours; conditions: cited from earlier work; for dose-limiting toxicities: 2008
[3] = tested on: advanced solid malignancy; test: Anti-tumour activity by CT/MRI (RECIST) in phase I patients; type: in vivo, human; conditions: for duration of response: confirmed PR
[4] = set-up: method as in Qian et al, 2006; conditions: combined with paclitaxel, docetaxel and carboplatin, in vitro and in vivo; ref Qian et al, 2006; cited from earlier work
[5] = Belinostat plasma pharmacokinetics in patients (HPLC-MS/MS, non-compartmental); type: in vivo, human; conditions: for Cl / Vss / AUC / AUC(0-inf) / Cmax / half-life: mean±s.d.; for AUC / AUC(0-inf) / Cmax / half-life: human, plasma, iv
Procedure: Belinostat and paclitaxel levels were determined in lithium-heparinised plasma using validated solid-phase extraction high performance liquid chromatograpgy (HPLC)-tandem mass spectrometric detection (MS/MS) methods (Covance, Indianapolis, IN, USA). […] Belinostat plasma concentrations were determined at Covance using a validated method involving solid-phase extraction, separation with acetic acid acetonitril gradient on reversed phase C18 silica and MS/MS using penta-deuterated belinostat as the internal standard. […] For all analytes the AUC was estimated from the start of infusion by the logarithmic-linear trapezoidal rule and extrapolated to infinity using the estimated value of the slope of the terminal logarithmic-linear disposition phase.

[6] = tested on: patients with advanced solid malignancy; conditions: in vivo
Procedure: Belinostat was administered in escalating doses of 600, 800 and 1000 mg m^−2 per day as a 30-min i.v. infusion on days 1–5 q21. Carboplatin was administered as a 30-min i.v. infusion at area under the curve (AUC) 5 on day 3 q21 days, whereas paclitaxel was administered at 175 mg m^−2 i.v. over 3 h. Cytotoxics were given 2–3 h after the administration of belinostat–paclitaxel followed by carboplatin. […] Carboplatin was dosed in accordance with the Calvert formula using ethylenediaminetetraacetic acid clearance to estimate glomerular filtration rate (GFR) ([Calvert et al, 1989]) at the European Union sites and the Jelliffe formula at sites in the United States ([Jelliffe, 1973]). Prophylactic anti-emetic and hypersensivity prophylaxis for paclitaxel were administered as per local standards.
A DLT was defined as an absolute neutrophil count <0.5 × 10^9 l^−1 lasting for ⩾7 days, or absolute neutrophil count <0.5 × 10^9 l^−1 with sepsis; or platelet count <25 × 10^9 l^−1. In addition, any other drug-related non-haematological grade III or IV toxicity with the exceptions of alopecia, nausea and vomiting, diarrhoea, rash, arthralgias and myalgias was categorized as DLT.
Dose escalation was planned in a classical 3+3 design in up to five cohorts. In cohort 1A, belinostat was to be administered at 600 mg m^−2 together with carboplatin AUC 5; in cohort 1B, […] with paclitaxel 175 mg m^−2. In cohort 2, belinostat at 600 mg m^−2 was to be administered with both carboplatin AUC 5 and paclitaxel at 175 mg m^−2. In cohorts 3 and 4, belinostat was to be administered at 800 and 1000 mg m^−2, respectively, together with the same doses of BelCaP. Treatment cycles were to be repeated until disease progression, evidence of significant treatment-related toxicities, or withdrawal of consent. Up to two dose reductions were to be allowed of all three drugs.
Pre-treatment evaluation included history, physical examination, laboratory assessments, chest x-ray, electrocardiogram (ECG), urinalysis and tumour evaluation with computed tomography (CT) or magnetic resonance imaging (MRI). Laboratory assessments (complete blood count, clotting screen, urea, creatinine, electrolytes, liver function tests, uric acid, glucose and cholesterol) were performed pre-treatment and weekly thereafter as well as on day 4 of cycles 1 and 2 only. Electrocardiograms were performed before and within 1 h after treatment with belinostat in cycle 1 and on day 1 only of all subsequent cycles. Central ECG reading was carried out using a digital analysis method.
Toxicities were graded according to the National Cancer Institute Common Terminology Criteria for Adverse Events version 3.0. Efficacy was assessed by CT or MRI performed every two cycles using Response Evaluation Criteria in Solid Tumors (RECIST) ([Therasse et al, 2000]).

[7] = eight patients with best response s.d.
[8] = belinostat 600 mg m^−2 i.v., days 1 and 3, 12 patients
[9] = belinostat 800 mg m^−2 i.v., days 1 and 3, 4 patients
[10] = belinostat 1000 mg m^−2 i.v., day 1, 7 patients
[11] = belinostat 1000 mg m^−2 i.v., day 3, 7 patients
[12] = 600 mg, belinostat 600 mg m^−2 i.v., days 1 and 3, 12 patients
[13] = 800 mg, belinostat 800 mg m^−2 i.v., days 1 and 3, 4 patients
[14] = 1000 mg, belinostat 1000 mg m^−2 i.v., day 1, 7 patients
[15] = 1000 mg, belinostat 1000 mg m^−2 i.v., day 3, 7 patients

O=C(/C=C/c1cccc(S(=O)(=O)Nc2ccccc2)c1)NO [belinostat]
activity against HDAC isoforms [1]: nanomolar activity
myelosuppression ([2]; single agent phase I studies, ref Steele et al, 2008, Gimsing et al): no significant myelosuppression
maximum tolerated dose (MTD) ([2]; single agent, i.v., q21 days, ref Steele et al, 2008, Gimsing et al): 1000 mg m^−2 per day
dose-limiting toxicities ([2]; single agent, solid tumour study, ref Steele et al): fatigue, diarrhoea and atrial fibrillation
dose-limiting toxicities ([2]; single agent, study of haematological tumours, ref Gimsing et al): none were seen
patients with best response of s.d. ([3]; 14 patients evaluable): eight
patients with stable disease lasting ⩾6 months ([3]; belinostat with carboplatin and/or paclitaxel): six and seven
partial responses (number of patients) ([3]; belinostat with carboplatin and/or paclitaxel, 14 patients evaluable, RECIST): two
duration of response ([3]; patient with metastatic pancreatic cancer treated with belinostat and carboplatin): 7 months
duration of response ([3]; patient with metastatic rectal cancer treated with belinostat, carboplatin and paclitaxel): 9 months
duration of s.d., median [3, 7]: 6.6 months
duration of s.d., range [3, 7]: 1–29 months
CA-125 response ([3]; one patient, mixed mullerian tumour of ovarian origin, radiologically s.d. by RECIST): complete CA-125 response
duration of s.d., range ([3]; seven patients with s.d. lasting ⩾6 months): 6–29 months
response in patient with metastatic transitional cell cancer of the bladder ([3]; treated with belinostat and paclitaxel, otherwise rated s.d.): resolution of a bony metastatic deposit
combination effect [4]: additive to synergistic
accumulation with repeat dosing ([5]; 1000 mg m^−2 per day, day 3 pre-infusion): no accumulation
Cl [5, 8]: 69.7±15.2 l h^−1 m^−2
Vss [5, 8]: 34.9±6.4 l m^−2
Cl [5, 9]: 73.7±14.1 l h^−1 m^−2
Vss [5, 9]: 38.1±9.7 l m^−2
Cl [5, 10]: 41.1±22.2 l h^−1 m^−2
Vss [5, 10]: 22.6±9.7 l m^−2
Cl [5, 11]: 45.1±17.3 l h^−1 m^−2
Vss [5, 11]: 35.8±17.3 l m^−2
patients with pre-infusion plasma value on day 3 below the limit of quantitation ([5]; belinostat 1000 mg m^−2 per day, limit of quantitation 5 ng ml^−1): five of seven
effect of concurrent administration on pharmacokinetics ([5]; belinostat with carboplatin and/or paclitaxel on day 3): unaltered
dose proportionality of pharmacokinetics ([5]; dose range 600–1000 mg m^−2): dose proportional
AUC [5, 12]: 28.4 ± 7.1 µM·h
AUC(0-inf) [5, 12]: 28.4 ± 7.1 µM·h
Cmax [5, 12]: 58.5 ± 13.8 µM
half-life [5, 12]: 1.7 ± 0.9 h
AUC [5, 13]: 35.5 ± 8.7 µM·h
AUC(0-inf) [5, 13]: 35.6 ± 8.7 µM·h
Cmax [5, 13]: 70.8 ± 18.9 µM
half-life [5, 13]: 1.7 ± 0.2 h
AUC [5, 14]: 102 ± 58.2 µM·h
AUC(0-inf) [5, 14]: 102 ± 58.3 µM·h
Cmax [5, 14]: 128 ± 43.5 µM
half-life [5, 14]: 1 ± 0.1 h
AUC [5, 15]: 88.8 ± 63.9 µM·h
AUC(0-inf) [5, 15]: 88.8 ± 63.9 µM·h
Cmax [5, 15]: 135 ± 54.9 µM
half-life [5, 15]: 2.7 ± 0.4 h
Alopecia grade 3, treatment related AE ([6]; human): 0
Arthralgia grade 3, treatment related AE ([6]; human): 0
Flushing grade 3, treatment related AE ([6]; human): 0
Nausea grade 3, treatment related AE ([6]; human): 0
Neutropenia grade 4, treatment related AE ([6]; human): 13%
maximal administered dose of belinostat ([6]; human): 1000 mg m^−2 per day
recommended dose of belinostat ([6]; human, iv): 1000 mg m^−2 per day
cardiac toxicity [6]: no cardiac toxicity
grade IV non-haematological adverse events [6]: no grade IV non-haematological adverse events
